What was measured:
Type in all cases: in vivo, rat
[1] = system: IgE; test: Ovalbumin-specific IgE ELISA of serum of immunised rats; conditions: pooled group serum
Procedure: (§1) Rats were injected with vaccine compositions comprising the ovalbumin antigen with and without di-oleoyl phosphatidyl serine, lyso-oleoyl phosphatidyl serine or stearoyl(X1)-arachidonoyl(X2) phosphatidyl serine and the concentrations of IgE, IgA and IgG are compared.
(§2) The animals were acclimatised for a period of 5 days prior to dosing. During the acclimatisation period animals were observed twice daily during the working week and once on each day during the weekend to evaluate the health status of the animals. Rats were then allocated to the following dose groups using computer-generated random order numbers.
(§3) On day 0, 20 μg of ovalbumin (OA) in phosphate buffered saline (PBS) with alhydrogel (AHG) adjuvant in a final volume of 0.5 mL was administered.
(§4) On days 21 and 42, 20 μg of ovalbumin (OA) in phosphate buffered saline (PBS) with the relevant test compound in a final volume of 0.5 ml was administered.
(§5) In each case, 0.5 mL of inoculum was injected subcutaneously into the scruff of the neck.
(§6) […] A blood sample was also taken from each animal on Days 15, 22, 29, 36, 43, 50, 57 and 64.
(§7) Serum was prepared by centrifugation of the blood sample at 2,500 rpm for 10 minutes and frozen at −20° C. The samples were then analysed by ELISA to establish the concentration of IgE, IgA and IgG1, IgG2a and IgG2b.
(§8) The purpose of an ELISA is to determine whether a particular protein is present in a sample and then enables quantification of how much is present. By coating the bottom of wells with ovalbumin (OVA) it is possible to bind anti-OVA specific antibodies. To detect only anti-OVA IgA antibodies anti-rat IgA conjugated to HRP was used as a secondary antibody. Quantification of specific antibodies in the rat sera samples was performed using antibody titrations. The data was reported as endpoint titers. Endpoint titers are defined as the last serum dilution giving an optical density value equal to twice the background optical density for the ELISA plate (buffer).

[2] = system: IgA; test: Ovalbumin-specific IgA ELISA of serum of immunised rats; conditions: pooled group serum
Procedure: as §1, §2, §3, §4, §5
On Day 0 a pre-inoculation blood sample was taken. A blood sample was also taken from each animal on Days 15, 22, 29, 36, 43, 50, 57 and 64.
as §7, §8

[3] = system: IgG1; test: Ovalbumin-specific IgG1 ELISA of serum of immunised rats; conditions: pooled group serum
Procedure: as §1, §2, §3, §4
(§9) In each case, 0.5 mL of inoculum was injected subcutaneously into the scruff of the neck. […]
as §7
as §8, with “To detect only anti-OVA IgA antibodies anti-rat IgA conjugated to HRP was used as a secondary antibody.” left out

[4] = system: IgG2a; test: Ovalbumin-specific IgG2a ELISA of serum of immunised rats; conditions: pooled group serum
Procedure: as §1, §2, §3, §4, §9, §7, §8

[5] = system: IgG2b; test: Ovalbumin-specific IgG2b ELISA of serum of immunised rats; conditions: pooled group serum
Procedure: as §1, §2, §3, §4, §5, §6, §7, §8

[6] = system: IgE; test: Ovalbumin-specific IgE ELISA of serum of immunised rats; conditions: Day 1; 250 ug with 20 μg Ova s.c. on days 21 and 42; pooled group serum
[7] = system: IgA; test: Ovalbumin-specific IgA ELISA of serum of immunised rats; conditions: Day 1; 50 ug with 20 μg Ova s.c. on days 21 and 42; pooled group serum
[8] = Day 1, 50 ug with 20 μg Ova s.c. on days 21 and 42
[9] = Day 15, 50 ug with 20 μg Ova s.c. on days 21 and 42
[10] = Day 15, 250 ug with 20 μg Ova s.c. on days 21 and 42
[11] = Day 22, 50 ug with 20 μg Ova s.c. on days 21 and 42
[12] = Day 22, 250 ug with 20 μg Ova s.c. on days 21 and 42
[13] = Day 29, 50 ug with 20 μg Ova s.c. on days 21 and 42
[14] = Day 29, 250 ug with 20 μg Ova s.c. on days 21 and 42
[15] = Day 36, 50 ug with 20 μg Ova s.c. on days 21 and 42
[16] = Day 36, 250 ug with 20 μg Ova s.c. on days 21 and 42
[17] = Day 43, 50 ug with 20 μg Ova s.c. on days 21 and 42
[18] = Day 43, 250 ug with 20 μg Ova s.c. on days 21 and 42
[19] = Day 50, 50 ug with 20 μg Ova s.c. on days 21 and 42
[20] = Day 50, 250 ug with 20 μg Ova s.c. on days 21 and 42
[21] = Day 57, 50 ug with 20 μg Ova s.c. on days 21 and 42
[22] = Day 57, 250 ug with 20 μg Ova s.c. on days 21 and 42
[23] = Day 64, 50 ug with 20 μg Ova s.c. on days 21 and 42
[24] = Day 64, 250 ug with 20 μg Ova s.c. on days 21 and 42
[25] = Day 1, 250 ug with 20 μg Ova s.c. on days 21 and 42

CCCCCCCC/C=C\CCCCCCCC(=O)OC[C@@H](O)COP(=O)(O)OC[C@H](N)C(=O)O [VT002, Lyso oleoyl phosphatidyl serine]
IgE endpoint titer [1, 8]: 0
IgE endpoint titer [1, 9]: 0
IgE endpoint titer [1, 10]: 0
IgE endpoint titer [1, 11]: 0
IgE endpoint titer [1, 12]: 0
IgE endpoint titer [1, 13]: 80
IgE endpoint titer [1, 14]: 0
IgE endpoint titer [1, 15]: 40
IgE endpoint titer [1, 16]: 20
IgE endpoint titer [1, 17]: 80
IgE endpoint titer [1, 18]: 40
IgE endpoint titer [1, 19]: 1280
IgE endpoint titer [1, 20]: 640
IgE endpoint titer [1, 21]: 320
IgE endpoint titer [1, 22]: 160
IgE endpoint titer [1, 23]: 160
IgE endpoint titer [1, 24]: 160
IgA endpoint titer [2, 25]: 0
IgA endpoint titer [2, 9]: 0
IgA endpoint titer [2, 10]: 0
IgA endpoint titer [2, 11]: 0
IgA endpoint titer [2, 12]: 0
IgA endpoint titer [2, 13]: 0
IgA endpoint titer [2, 14]: 0
IgA endpoint titer [2, 15]: 160
IgA endpoint titer [2, 16]: 80
IgA endpoint titer [2, 17]: 320
IgA endpoint titer [2, 18]: 160
IgA endpoint titer [2, 19]: 2560
IgA endpoint titer [2, 20]: 1280
IgA endpoint titer [2, 21]: 1280
IgA endpoint titer [2, 22]: 1280
IgA endpoint titer [2, 23]: 2560
IgA endpoint titer [2, 24]: 1280
IgG1 endpoint titer [3, 8]: 0
IgG1 endpoint titer [3, 25]: 0
IgG1 endpoint titer [3, 9]: 320
IgG1 endpoint titer [3, 10]: 640
IgG1 endpoint titer [3, 11]: 2560
IgG1 endpoint titer [3, 12]: 2560
IgG1 endpoint titer [3, 13]: 10240
IgG1 endpoint titer [3, 14]: 5120
IgG1 endpoint titer [3, 15]: 20480
IgG1 endpoint titer [3, 16]: 20480
IgG1 endpoint titer [3, 17]: 20480
IgG1 endpoint titer [3, 18]: 10240
IgG1 endpoint titer [3, 19]: 40960
IgG1 endpoint titer [3, 20]: 20480
IgG1 endpoint titer [3, 21]: 40960
IgG1 endpoint titer [3, 22]: 40960
IgG1 endpoint titer [3, 23]: 40960
IgG1 endpoint titer [3, 24]: 40960
IgG2a endpoint titer [4, 8]: 0
IgG2a endpoint titer [4, 25]: 0
IgG2a endpoint titer [4, 9]: 40
IgG2a endpoint titer [4, 10]: 80
IgG2a endpoint titer [4, 11]: 1280
IgG2a endpoint titer [4, 12]: 640
IgG2a endpoint titer [4, 13]: 2560
IgG2a endpoint titer [4, 14]: 1280
IgG2a endpoint titer [4, 15]: 5120
IgG2a endpoint titer [4, 16]: 2560
IgG2a endpoint titer [4, 17]: 5120
IgG2a endpoint titer [4, 18]: 2560
IgG2a endpoint titer [4, 19]: 20480
IgG2a endpoint titer [4, 20]: 20480
IgG2a endpoint titer [4, 21]: 20480
IgG2a endpoint titer [4, 22]: 20480
IgG2a endpoint titer [4, 23]: 20480
IgG2a endpoint titer [4, 24]: 20480
IgG2b endpoint titer [5, 8]: 0
IgG2b endpoint titer [5, 25]: 0
IgG2b endpoint titer [5, 9]: 0
IgG2b endpoint titer [5, 10]: 40
IgG2b endpoint titer [5, 11]: 0
IgG2b endpoint titer [5, 12]: 80
IgG2b endpoint titer [5, 13]: 160
IgG2b endpoint titer [5, 14]: 40
IgG2b endpoint titer [5, 15]: 320
IgG2b endpoint titer [5, 16]: 320
IgG2b endpoint titer [5, 17]: 640
IgG2b endpoint titer [5, 18]: 640
IgG2b endpoint titer [5, 19]: 640
IgG2b endpoint titer [5, 20]: 5120
IgG2b endpoint titer [5, 21]: 2560
IgG2b endpoint titer [5, 22]: 5120
IgG2b endpoint titer [5, 23]: 1280
IgG2b endpoint titer [5, 24]: 2560
IgE endpoint titer [6]: 0
IgA endpoint titer [7]: 0

CCCCC/C=C\C/C=C\C/C=C\C/C=C\CCCC(=O)O[C@H](COC(=O)CCCCCCCCCCCCCCCCC)COP(=O)(O)OC[C@H](N)C(=O)O [VT003, Stearoyl arachadonoyl phosphatidyl serine]
IgE endpoint titer [1, 8]: 0
IgE endpoint titer [1, 9]: 0
IgE endpoint titer [1, 10]: 0
IgE endpoint titer [1, 11]: 0
IgE endpoint titer [1, 12]: 0
IgE endpoint titer [1, 13]: 0
IgE endpoint titer [1, 14]: 0
IgE endpoint titer [1, 15]: 0
IgE endpoint titer [1, 16]: 0
IgE endpoint titer [1, 17]: 0
IgE endpoint titer [1, 18]: 0
IgE endpoint titer [1, 19]: 320
IgE endpoint titer [1, 20]: 80
IgE endpoint titer [1, 21]: 80
IgE endpoint titer [1, 22]: 40
IgE endpoint titer [1, 23]: 40
IgE endpoint titer [1, 24]: 20
IgA endpoint titer [2, 25]: 0
IgA endpoint titer [2, 9]: 0
IgA endpoint titer [2, 10]: 0
IgA endpoint titer [2, 11]: 0
IgA endpoint titer [2, 12]: 0
IgA endpoint titer [2, 13]: 40
IgA endpoint titer [2, 14]: 40
IgA endpoint titer [2, 15]: 640
IgA endpoint titer [2, 16]: 160
IgA endpoint titer [2, 17]: 640
IgA endpoint titer [2, 18]: 320
IgA endpoint titer [2, 19]: 1280
IgA endpoint titer [2, 20]: 640
IgA endpoint titer [2, 21]: 640
IgA endpoint titer [2, 22]: 640
IgA endpoint titer [2, 23]: 640
IgA endpoint titer [2, 24]: 1280
IgG1 endpoint titer [3, 8]: 0
IgG1 endpoint titer [3, 25]: 0
IgG1 endpoint titer [3, 9]: 320
IgG1 endpoint titer [3, 10]: 320
IgG1 endpoint titer [3, 11]: 2560
IgG1 endpoint titer [3, 12]: 2560
IgG1 endpoint titer [3, 13]: 20480
IgG1 endpoint titer [3, 14]: 20480
IgG1 endpoint titer [3, 15]: 20480
IgG1 endpoint titer [3, 16]: 20480
IgG1 endpoint titer [3, 17]: 20480
IgG1 endpoint titer [3, 18]: 10240
IgG1 endpoint titer [3, 19]: 20480
IgG1 endpoint titer [3, 20]: 10240
IgG1 endpoint titer [3, 21]: 10240
IgG1 endpoint titer [3, 22]: 10240
IgG1 endpoint titer [3, 23]: 40960
IgG1 endpoint titer [3, 24]: 20480
IgG2a endpoint titer [4, 8]: 0
IgG2a endpoint titer [4, 25]: 0
IgG2a endpoint titer [4, 9]: 40
IgG2a endpoint titer [4, 10]: 40
IgG2a endpoint titer [4, 11]: 1280
IgG2a endpoint titer [4, 12]: 1280
IgG2a endpoint titer [4, 13]: 2560
IgG2a endpoint titer [4, 14]: 2560
IgG2a endpoint titer [4, 15]: 10240
IgG2a endpoint titer [4, 16]: 5120
IgG2a endpoint titer [4, 17]: 10240
IgG2a endpoint titer [4, 18]: 5120
IgG2a endpoint titer [4, 19]: 20480
IgG2a endpoint titer [4, 20]: 20480
IgG2a endpoint titer [4, 21]: 10240
IgG2a endpoint titer [4, 22]: 10240
IgG2a endpoint titer [4, 23]: 20480
IgG2a endpoint titer [4, 24]: 20480
IgG2b endpoint titer [5, 8]: 0
IgG2b endpoint titer [5, 25]: 0
IgG2b endpoint titer [5, 9]: 40
IgG2b endpoint titer [5, 10]: 40
IgG2b endpoint titer [5, 11]: 320
IgG2b endpoint titer [5, 12]: 80
IgG2b endpoint titer [5, 13]: 40
IgG2b endpoint titer [5, 14]: 80
IgG2b endpoint titer [5, 15]: 640
IgG2b endpoint titer [5, 16]: 640
IgG2b endpoint titer [5, 17]: 320
IgG2b endpoint titer [5, 18]: 1280
IgG2b endpoint titer [5, 19]: 160
IgG2b endpoint titer [5, 20]: 320
IgG2b endpoint titer [5, 21]: 640
IgG2b endpoint titer [5, 22]: 1280
IgG2b endpoint titer [5, 23]: 640
IgG2b endpoint titer [5, 24]: 1280
IgE endpoint titer [6]: 0
IgA endpoint titer [7]: 0

— patent US8765721B2, “Composition comprising phosphatidyl serine and an antigen or allergen and the use thereof” (Vaccine Technology Limited, priority 2004, dated 2014)
